# Earlier results as cited in patent publication US10695439B2, “Pyrrolobenzodiazepine conjugates” (Medimmune Limited, priority 2016, dated 2020).
# Tests used:
# [1] = relative to SG2057, Hartley et al 2012
# human tumour cell lines = conditions: quoted from 2014 REF impact study
# [2] = test system: human tumour xenograft models; conditions: quoted from 2014 REF impact study
SMILES,"cytotoxicity, times less cytotoxic than SG2057 [1]",activity against a range of human tumour cell lines (human tumour cell lines),activity in human tumour xenograft models [2]
C=C1C[C@H]2C=Nc3cc(OCCCOc4cc5c(cc4OC)C(=O)N4CC(=C)C[C@H]4C=N5)c(OC)cc3C(=O)N2C1 [SG2000],at least 10 times,–,–
COc1ccc(C2=CN3C(=O)c4cc(OC)c(OCCCOc5cc6c(cc5OC)C(=O)N5C=C(c7ccc(OC)cc7)C[C@H]5C=N6)cc4N=C[C@@H]3C2)cc1 [SG2202],–,picomolar/sub-picomolar activity,curative activity
